From ChEMBL document CHEMBL3739261, “Synthesis and antibacterial activity evaluation of C-5 side chain modified analogues of FYL-66, a potential agent against methicillin-resistant Staphylococcus aureus” (Medchemcomm, 2015)
Converted amounts (≈) assume the structure as drawn. The source made the active and inactive calls. The rule behind the calls is not given here.

Legend:
Streptococcus pneumoniae = experiment: Antibacterial activity against Penicillin-resistant Streptococcus pneumoniae; type: functional
Staphylococcus aureus [1] = experiment: Antibacterial activity against methicillin-resistant Staphylococcus aureus; type: functional
Enterococcus [2] = experiment: Antibacterial activity against Enterococcus; type: functional
Enterococcus [3] = experiment: Antibacterial activity against vancomycin-resistant Enterococcus; type: functional
Staphylococcus aureus [4] = experiment: Antibacterial activity against methicillin-resistant Staphylococcus aureus ATCC 33591 in neutropenic Kunming mouse systemic infection model assessed as survival rate at 20 mg/kg, po administered 1 hr post inoculation measured on day 3; type: functional
[5] = Cytotoxicity against HEK293A cells after 48 hrs by MTT assay; type: cell-based; conditions: Homo sapiens, HEK293-A
Staphylococcus aureus [6] = experiment: Antibacterial activity against methicillin-susceptible Staphylococcus aureus ATCC 25923 incubated for 18 hrs by broth microdilution method; type: functional; conditions: ATCC 25923, 18 h
Staphylococcus aureus [7] = experiment: Antibacterial activity against methicillin-susceptible Staphylococcus aureus ATCC 6538 incubated for 18 hrs by broth microdilution method; type: functional; conditions: ATCC 6538, 18 h
[8] = Clearance in Sprague-Dawley rat blood at 10 mg/kg, iv by HPLC analysis; type: ADME, organism-based
Staphylococcus aureus [9] = experiment: Antibacterial activity against methicillin-susceptible Staphylococcus aureus CMCC 2603 incubated for 18 hrs by broth microdilution method; type: functional; conditions: CMCC 2603, 18 h
Staphylococcus aureus [10] = experiment: Antibacterial activity against methicillin-resistant Staphylococcus aureus ATCC 43300 incubated for 18 hrs by broth microdilution method; type: functional; conditions: ATCC 43300, 18 h
[11] = AUC (0 to infinity) in Sprague-Dawley rat blood at 10 mg/kg, po by HPLC analysis; type: ADME, organism-based; design: dose 10 mg/kg, route oral, time infinity
Escherichia coli = experiment: Antibacterial activity against Escherichia coli ATCC 25922 incubated for 18 hrs by broth microdilution method; type: functional; conditions: ATCC 25922, 18 h
[12] = Clearance in Sprague-Dawley rat blood at 10 mg/kg, po by HPLC analysis; type: ADME, organism-based
[13] = Octanol/water partition coefficient, log P of the compound by HPLC assay; type: physicochemical
Pseudomonas aeruginosa = experiment: Antibacterial activity against Pseudomonas aeruginosa ATCC 27853 incubated for 18 hrs by broth microdilution method; type: functional; conditions: ATCC 27853, 18 h
[14] = Cmax in Sprague-Dawley rat blood at 10 mg/kg, po by HPLC analysis; type: ADME, organism-based; design: dose 10 mg/kg, route oral
[15] = Oral bioavailability in Sprague-Dawley rat blood at 10 mg/kg by HPLC analysis; type: ADME, organism-based
[16] = Tmax in Sprague-Dawley rat blood at 10 mg/kg, po by HPLC analysis; type: ADME, organism-based
[17] = Half life in Sprague-Dawley rat blood at 10 mg/kg, po by HPLC analysis; type: ADME, organism-based
[18] = Tmax in Sprague-Dawley rat blood at 10 mg/kg, iv by HPLC analysis; type: ADME, organism-based
[19] = Cytotoxicity against human L02 cells after 48 hrs by MTT assay; type: cell-based; conditions: L02, 48 h
Staphylococcus aureus [20] = experiment: Antibacterial activity against methicillin-resistant Staphylococcus aureus ATCC 33591 in neutropenic Kunming mouse systemic infection model assessed as survival rate at 20 mg/kg, po administered 1 hr post inoculation measured on day 1 to 2; type: functional; conditions: ATCC 33591, po
[21] = Half life in Sprague-Dawley rat blood at 10 mg/kg, iv by HPLC analysis; type: ADME, organism-based
Staphylococcus aureus [22] = experiment: Antibacterial activity against methicillin-susceptible Staphylococcus aureus ATCC 29213 incubated for 18 hrs by broth microdilution method; type: functional; conditions: ATCC 29213, 18 h
[23] = Solubility of compound in distilled water after 24 hrs by HPLC analysis; type: physicochemical
Staphylococcus aureus [24] = experiment: Antibacterial activity against methicillin-resistant Staphylococcus aureus ATCC 33591 incubated for 18 hrs by broth microdilution method; type: functional; conditions: ATCC 33591, 18 h
[25] = AUC (0 to infinity) in Sprague-Dawley rat blood at 10 mg/kg, iv by HPLC analysis; type: ADME, organism-based; design: dose 10 mg/kg, route intravenous, time infinity
[26] = Cmax in Sprague-Dawley rat blood at 10 mg/kg, iv by HPLC analysis; type: ADME, organism-based; design: dose 10 mg/kg, route intravenous
Staphylococcus aureus [27] = experiment: Antibacterial activity against methicillin-resistant Staphylococcus aureus ATCC 33591 in neutropenic Kunming mouse systemic infection model assessed as survival rate at 10 mg/kg, po administered 1 hr post inoculation measured after 1 week; type: functional, organism-based

CC(=O)NC[C@H]1CN(c2ccc(-n3cc(-c4ccccn4)cn3)c(F)c2)C(=O)O1.Cl
MIC (Streptococcus pneumoniae): 0.25 mg/L
MIC (Staphylococcus aureus [1]): 0.25 mg/L
MIC (Enterococcus [2]): 0.25 mg/L
MIC (Enterococcus [3]): 0.25 mg/L

CC(=O)NC[C@H]1CN(c2ccc(-n3cc(-c4ccccn4)cn3)c(F)c2)C(=O)O1 [listing 1 of 2 here]
Activity (Staphylococcus aureus [4]): Active

CC(=O)NC[C@H]1CN(c2ccc(-n3cc(-c4ccccn4)cn3)c(F)c2)C(=O)O1 [listing 2 of 2 here]
IC50 [5]: 174 mg/L (≈ 440 µM)
MIC (Streptococcus pneumoniae): 0.25 mg/L (≈ 0.632 µM)
MIC (Staphylococcus aureus [6]): 2 mg/L (≈ 5.06 µM)
MIC (Staphylococcus aureus [7]): 2 mg/L (≈ 5.06 µM)
clearance [8]: 0.05 L/h/kg
MIC (Staphylococcus aureus [9]): 2 mg/L (≈ 5.06 µM)
MIC (Staphylococcus aureus [10]): 2 mg/L (≈ 5.06 µM)
AUC(0-inf) [11]: 157 µg·h/mL
MIC (Escherichia coli): > 32 mg/L
CL/F [12]: 0.09 L/h/kg
logP [13]: 1.35
MIC (Pseudomonas aeruginosa): > 32 mg/L
Cmax [14]: 5.77 µg/mL
bioavailability [15]: 76.7%
Tmax [16]: 11 h
half-life [17]: 13.1 h
Tmax [18]: 6.6 min
IC50 [19]: 261 mg/L (≈ 660 µM)
survival at 20 mg/kg (Staphylococcus aureus [20]): 30%
half-life [21]: 0.88 h
MIC (Staphylococcus aureus [1]): 0.25 mg/L (≈ 0.632 µM)
MIC (Staphylococcus aureus [22]): 2 mg/L (≈ 5.06 µM)
solubility at 24 h [23]: 134 µM (≈ 52.8 µg/mL)
MIC (Enterococcus [2]): 0.25 mg/L (≈ 0.632 µM)
MIC (Enterococcus [3]): 0.25 mg/L (≈ 0.632 µM)
MIC (Staphylococcus aureus [24]): 2 mg/L (≈ 5.06 µM)
AUC(0-inf) [25]: 205 µg·h/mL

CN(C)S(=O)(=O)NC[C@H]1CN(c2ccc(-n3cc(-c4ccccn4)cn3)c(F)c2)C(=O)O1
IC50 [5]: 249 mg/L (≈ 541 µM)
MIC (Staphylococcus aureus [6]): > 32 mg/L
MIC (Staphylococcus aureus [7]): > 32 mg/L
MIC (Staphylococcus aureus [9]): > 32 mg/L
MIC (Staphylococcus aureus [10]): > 32 mg/L
MIC (Escherichia coli): > 32 mg/L
logP [13]: 1.38
MIC (Pseudomonas aeruginosa): > 32 mg/L
IC50 [19]: 158 mg/L (≈ 343 µM)
MIC (Staphylococcus aureus [22]): > 32 mg/L
solubility at 24 h [23]: 472 µM (≈ 217 µg/mL)
MIC (Staphylococcus aureus [24]): > 32 mg/L

O=C1O[C@@H](CSc2cccs2)CN1c1ccc(-n2cc(-c3ccccn3)cn2)c(F)c1
IC50 [5]: > 400 mg/L
MIC (Staphylococcus aureus [6]): > 32 mg/L
MIC (Staphylococcus aureus [7]): > 32 mg/L
MIC (Staphylococcus aureus [9]): > 32 mg/L
MIC (Staphylococcus aureus [10]): > 32 mg/L
MIC (Escherichia coli): > 32 mg/L
logP [13]: 4.29
MIC (Pseudomonas aeruginosa): > 32 mg/L
IC50 [19]: > 400 mg/L
MIC (Staphylococcus aureus [22]): > 32 mg/L
solubility at 24 h [23]: 8.5 µM (≈ 3.85 µg/mL)
MIC (Staphylococcus aureus [24]): > 32 mg/L

CN(CCC#N)C[C@H]1CN(c2ccc(-n3cc(-c4ccccn4)cn3)c(F)c2)C(=O)O1
IC50 [5]: > 400 mg/L
MIC (Staphylococcus aureus [6]): > 32 mg/L
MIC (Staphylococcus aureus [7]): > 32 mg/L
MIC (Staphylococcus aureus [9]): > 32 mg/L
MIC (Staphylococcus aureus [10]): > 32 mg/L
MIC (Escherichia coli): > 32 mg/L
logP [13]: 1.9
MIC (Pseudomonas aeruginosa): > 32 mg/L
IC50 [19]: > 400 mg/L
MIC (Staphylococcus aureus [22]): > 32 mg/L
solubility at 24 h [23]: 64.5 µM (≈ 27.1 µg/mL)
MIC (Staphylococcus aureus [24]): > 32 mg/L

CNC(=O)[C@H]1CN(c2ccc(-n3cc(-c4ccccn4)cn3)c(F)c2)C(=O)O1
IC50 [5]: 342 mg/L (≈ 897 µM)
MIC (Staphylococcus aureus [6]): 8 mg/L (≈ 21 µM)
MIC (Staphylococcus aureus [7]): 8 mg/L (≈ 21 µM)
MIC (Staphylococcus aureus [9]): 8 mg/L (≈ 21 µM)
MIC (Staphylococcus aureus [10]): 16 mg/L (≈ 42 µM)
MIC (Escherichia coli): > 32 mg/L
logP [13]: 1.39
MIC (Pseudomonas aeruginosa): > 32 mg/L
IC50 [19]: 217 mg/L (≈ 569 µM)
MIC (Staphylococcus aureus [22]): 8 mg/L (≈ 21 µM)
solubility at 24 h [23]: 26.2 µM (≈ 9.99 µg/mL)
MIC (Staphylococcus aureus [24]): 16 mg/L (≈ 42 µM)

O=CNC[C@H]1CN(c2ccc(-n3cc(-c4ccccn4)cn3)c(F)c2)C(=O)O1
IC50 [5]: > 400 mg/L
MIC (Staphylococcus aureus [6]): 8 mg/L (≈ 21 µM)
MIC (Staphylococcus aureus [7]): 8 mg/L (≈ 21 µM)
MIC (Staphylococcus aureus [9]): 8 mg/L (≈ 21 µM)
MIC (Staphylococcus aureus [10]): 8 mg/L (≈ 21 µM)
MIC (Escherichia coli): > 32 mg/L
logP [13]: 1.19
MIC (Pseudomonas aeruginosa): > 32 mg/L
IC50 [19]: > 400 mg/L
MIC (Staphylococcus aureus [22]): 8 mg/L (≈ 21 µM)
solubility at 24 h [23]: 217 µM (≈ 82.8 µg/mL)
MIC (Staphylococcus aureus [24]): 8 mg/L (≈ 21 µM)

O=C1OC(Cn2ccnc2)CN1c1ccc(-n2cc(-c3ccccn3)cn2)c(F)c1 (single isomer, unassigned)
IC50 [5]: > 400 mg/L
MIC (Staphylococcus aureus [6]): > 32 mg/L
MIC (Staphylococcus aureus [7]): > 32 mg/L
MIC (Staphylococcus aureus [9]): > 32 mg/L
MIC (Staphylococcus aureus [10]): > 32 mg/L
MIC (Escherichia coli): > 32 mg/L
logP [13]: 1.73
MIC (Pseudomonas aeruginosa): > 32 mg/L
IC50 [19]: 350 mg/L (≈ 865 µM)
MIC (Staphylococcus aureus [22]): > 32 mg/L
solubility at 24 h [23]: 12.3 µM (≈ 4.97 µg/mL)
MIC (Staphylococcus aureus [24]): > 32 mg/L

CC(=O)NC[C@H]1CN(c2ccc(N3CCOCC3)c(F)c2)C(=O)O1 [LINEZOLID]
IC50 [5]: 215 mg/L (≈ 637 µM)
MIC (Escherichia coli): > 32 mg/L
MIC (Pseudomonas aeruginosa): > 32 mg/L
IC50 [19]: 213 mg/L (≈ 631 µM)
survival at 20 mg/kg (Staphylococcus aureus [20]): 30%
Activity (Staphylococcus aureus [4]): Active

O=C(NC[C@H]1CN(c2ccc(-n3cc(-c4ccccn4)cn3)c(F)c2)C(=O)O1)C(F)F
IC50 [5]: 167 mg/L (≈ 387 µM)
Cmax [26]: 15 µg/mL
MIC (Staphylococcus aureus [6]): 2 mg/L (≈ 4.64 µM)
MIC (Staphylococcus aureus [7]): 2 mg/L (≈ 4.64 µM)
clearance [8]: 0.18 L/h/kg
MIC (Staphylococcus aureus [9]): 2 mg/L (≈ 4.64 µM)
MIC (Staphylococcus aureus [10]): 2 mg/L (≈ 4.64 µM)
AUC(0-inf) [11]: 51.6 µg·h/mL
MIC (Escherichia coli): > 32 mg/L
Activity (Staphylococcus aureus [27]): Active
CL/F [12]: 0.2 L/h/kg
logP [13]: 1.9
MIC (Pseudomonas aeruginosa): > 32 mg/L
Cmax [14]: 4.36 µg/mL
bioavailability [15]: 89.6%
Tmax [16]: 1.5 h
half-life [17]: 8.87 h
Tmax [18]: 6.6 min
IC50 [19]: > 400 mg/L
survival at 20 mg/kg (Staphylococcus aureus [20]): 40%
half-life [21]: 5.4 h
survival at 20 mg/kg (Staphylococcus aureus [4]; ATCC 33591, po): 30%
MIC (Staphylococcus aureus [22]): 2 mg/L (≈ 4.64 µM)
solubility at 24 h [23]: 29.9 µM (≈ 12.9 µg/mL)
MIC (Staphylococcus aureus [24]): 2 mg/L (≈ 4.64 µM)
AUC(0-inf) [25]: 57.6 µg·h/mL

COC[C@H]1CN(c2ccc(-n3cc(-c4ccccn4)cn3)c(F)c2)C(=O)O1
IC50 [5]: > 400 mg/L
MIC (Staphylococcus aureus [6]): > 32 mg/L
MIC (Staphylococcus aureus [7]): > 32 mg/L
MIC (Staphylococcus aureus [9]): > 32 mg/L
MIC (Staphylococcus aureus [10]): > 32 mg/L
MIC (Escherichia coli): > 32 mg/L
logP [13]: 2.18
MIC (Pseudomonas aeruginosa): > 32 mg/L
IC50 [19]: > 400 mg/L
MIC (Staphylococcus aureus [22]): > 32 mg/L
solubility at 24 h [23]: 36.2 µM (≈ 13.3 µg/mL)
MIC (Staphylococcus aureus [24]): > 32 mg/L
